According to patent publication US20030017158A1, “Method for detecting and killing epithelial cancer cells” (priority 2002, published 2003):

Tests used:
[1] = system: living oral carcinoma cells (SqCHN); assay: Selective toxicity, cell killing of carcinoma cells over 8 days; type: cell-based; details: for selective toxicity towards carcinoma cells: carcinoma cells compared to normal oral epithelial cells; for cell death of carcinoma cells: incubated with dye fraction, washed, observed over 8 days
Procedure: (§1) The compounds represented by peaks 5, 6, 7 and 8, obtained during the fractionation of the toluidine blue O, are analyzed for their selective toxicity towards living oral carcinoma cells (SqCHN) compared to living normal oral epithelial cells. Separate cultures of squamous carcinoma cells and normal epithelial cells are incubated with the different dye fractions and then washed with dye-free medium. The cells are then re-incubated in growth medium and observed over a period of 8 days to determine the extent of cell killing. The compound of peak 6 results in 95% cell death of carcinoma cells, compared to only about 20% killing of normal cells.

[2] = system: carcinoma cells; assay: Uptake and retention of mitochondrial marking agents in living carcinoma cells; type: cell-based; details: 5 minute incubation, rinsed twice with 1% acetic acid, 2-butanol extraction, spectrophotometry
Procedure: Different concentrations of the various cationic marking agents, at 100, 50, 10 and 1 μg/ml are prepared in RPMI medium complete with 20% fetal calf serum, 1 mM glutamine, hydrocortisone, insulin, transferrin, estradiol, selenium and growth hormone.
The carcinoma cells are incubated at 37EC in tissue culture incubators with 5% CO2 and 95% relative humidity, for 5 minutes with each agent and concentration there and then rinsed twice using 2 minute incubations with 1% acetic acid. After incubation and rinsing, the cells are harvested, at 30 min., 1 hour, 2 hours, 4 hours and 8 hours. The cells are then extracted with 2-butanol and analyzed by spectrophotometry for quantitation of the marking agent.

[3] = system: living normal oral epithelial cells; assay: Selective toxicity, cell killing of normal cells over 8 days; type: cell-based; details: incubated with dye fraction, washed, observed over 8 days
Procedure: as §1

[4] = system: other squamous carcinomas, adenocarcinomas, lymphomas and sarcomas; assay: Further in-vitro tests with other isolates of carcinoma cells and normal epithelial cells; type: cell-based; details: conducted in the manner of Example 8
Procedure: (§2) The therapeutic characteristics of the compounds of peaks 6 and 8 are determined by further in-vitro tests, conducted in the manner of Example 8, using other isolates of carcinoma cells and normal epithelial cells. The testing profile includes other squamous carcinomas of the head and neck, esophagus, lung, cervix and skin, as well as other types of cancers, including adenocarcinomas, lymphomas and sarcomas. In-vivo “delay of tumor growth” and “tumor regression assay” tests using tumor-bearing animals, including head and neck and lung carcinomas implanted in Balb-C mice, are made to analyze the in-vivo therapeutic benefit of these compounds.

[5] = system: head and neck and lung carcinomas implanted in Balb-C mice; assay: In-vivo delay of tumor growth and tumor regression assay; details: tumor-bearing Balb-C mice
Procedure: as §2

Row | Compound | selective toxicity towards carcinoma cells [1] | saturation concentration [2] [µg/mL] | killing of normal cells [3] | selective toxicity to the wider variety of cancer cell types, in vitro [4] | cell death of carcinoma cells [1] [%] | selective toxicity, in-vivo therapeutic benefit [5]
1 | CNc1ccc2nc3ccc(N)c(C)c3[s+]c2c1 [peak 5] | do not exhibit the same selective toxicity |  |  |  |  | 
2 | Cc1c(N)ccc2nc3ccc(N(C)C)cc3[s+]c12 [peak 7] | do not exhibit the same selective toxicity |  |  |  |  | 
3 | Cc1cc2nc3ccc(N(C)C)cc3[s+]c2cc1N.[Cl-] [toluidine blue O] |  | ≥ 10 |  |  |  | 
4 | CNc1ccc2nc3cc(C)c(N)cc3[s+]c2c1 [peak 6] | selectively toxic towards carcinoma cells |  | about 20% | confirm the selective toxicity | 95 | confirm the selective toxicity
5 | Cc1cc2nc3ccc(N(C)C)cc3[s+]c2cc1N [peak 8] | selectively toxic towards carcinoma cells |  | about 20% | confirm the selective toxicity | 89 | confirm the selective toxicity
